Test results from patent publication US20200316064A1, “CYCLIN-DEPENDENT KINASE 2 BIOMARKERS AND USES THEREOF” (Incyte Corporation, priority 2019, published 2020).
pIC50: −log10 of the molar value.

Columns and labels:
[1] = test system: CCNE1-amplified cell lines (COV318, OVCAR3, Fu-OV1, KLE, MKN1, AGS, NCI-N87); assay: Cell cycle analysis by FACS in CCNE1-amplified cell lines; assay type: cell-based, human; details: 100 nM, 16 hours, vs DMSO
Method: The effect of CDK2-knockdown in CCNE1-amplified versus CCNE1-non-amplified cell lines was evaluated. CCNE1-amplified cell lines (Fu-OV1 and KLE) or CCNE1-non-amplified cell lines (COV504 and Igrov1) were treated with a control (“ctrl”) or CDK2-specific small interfering RNAs (“siRNAs”) (“CDK2 siRNA-1” and “CDK2 siRNA-2”) (FIGS. 2A and 2B and 3A and 3B). Seventy-two hours after transfection with the siRNAs, the cells were harvested and subjected to cell cycle analysis by fluorescence activated cell sorting (“FACS”) (FIGS. 2A and 3A). Knockdown of CDK2 was confirmed by western blot (FIGS. 2B and 3B).
The effect of CDK4/6-inhibition in CCNE1-amplified versus CCNE1-non-amplified cell lines was evaluated.
A similar experiment was performed in a larger set of CCNE1-amplified cell lines (COV318 and OVCAR3) and CCNE1-non-amplified cell lines (COV504, OV56, and Igrov1) (FIG. 6).
Next, the impact of CDK2-knockdown in these cells was evaluated. Mkn1, Ags, and NCI-N87 cells were treated with control or CDK2-specific siRNA. Three days-post-siRNA transfection, cell cycle phase distribution of the cells was evaluated by FACS. […]
Bulk DNA was stained with DAPI. Compound-treated and DMSO treated control cells were acquired with CytoFlex (Beckman Coulter) and were analyzed using the Flow Jo software. […]

[2] = test system: Rb phosphorylated on serine 780 in CCNE1 amplified COV318 cells; assay: CDK2 pRb (S780) HTRF cellular assay; assay type: cell-based, human; details: for pIC50: Homo sapiens, FIG. 10B, read-out: IC50 in p-RB S780 HTRF cellular assay
Method: CDK2 pRb ([…]) HTRF cellular assay enables the quantitative detection of Rb phosphorylated on […] in CCNE1 amplified COV318 cells. The assay comprised two antibodies: Europium cryptate labeled anti-Phospho-Rb […] antibody (donor) and d2 labeled anti-Rb antibody (acceptor). In brief, COV318 cells were seeded into the wells of 96-well plate at a density of 25,000 per well with 9-point, 3-fold serial diluted compounds and cultured overnight at 37 degree with 5% CO2. The final concentrations of compounds start from 3 μM. The next day cells were lysed in 70 μL 1× Phospho-total protein lysis buffer #2 (Cisbio), supplemented with 0.7 μL blocking buffer (Cisbio) and 1.4 μL protease inhibitor cocktail set III, EDTA-free (Calbiochem, 539134). 16 μL of cell lysates were mixed with 4 μL of the fluorophore-conjugated antibodies to a final concentration of 0.188 nM cryptate-labeled anti-Phospho-Rb […] antibody and 0.14 nM d2 labeled anti-Rb antibody. After 2 h of incubation at room temperature, HTRF signals were measured on the PHERAstar microplate reader (BMG Labtech), using 340 nm as excitation wavelength, a 620 nm filter for the Europium donor fluorescence, and a 665-nm filter for the acceptor fluorescence detection. HTRF signals were calculated as the HTRF ratio (ratio of fluorescence measured at 665 nm and 620 nm)×10000.

| SMILES | percentage of S phase cells ([1]; COV318, control siRNA-treated) | percentage of S phase cells ([1]; COV318, p16 knocked down by siRNA) | Rb phosphorylation on serine 780 [2] | pIC50 [2] |
| --- | --- | --- | --- | --- |
| C[C@@]1(O)CCC[C@H]1n1c(=O)ccc2cnc(NC3CCN(S(C)(=O)=O)CC3)nc21 [Compound A, 8-((1R,2R)-2-hydroxy-2-methylcyclopentyl)-2-((1-(methylsulfonyl)piperidin-4-yl)amino)pyrido[2,3-d]pyrimidin-7(8H)-one] | significantly decreased | not significantly decreased | inhibited Rb phosphorylation on serine 780 | 7.43 |
| CC(=O)c1c(C)c2cnc(Nc3ccc(N4CCNCC4)cn3)nc2n(C2CCCC2)c1=O [palbociclib] |  |  |  | < 5.52 |
